Data: patent publication US10800755B2, “2,6-disubstituted pyridine derivative” (Sumitomo Dainippon Pharma Co., Ltd., priority 2017, dated 2020)
Like-named read-outs stand apart in the source and are kept apart here.

Experiments:
human 5-HT1A receptor [1] = target: T1, human 5-HT1A receptor (Homo sapiens (Human), UniProt P08908); test: Test 1: agonistic activity for human 5-HT1A receptor (aequorin/Gα16 luminescence in CHO-K1 cell); assay type: cell-based; conditions: for Emax: CHO-K1, 100% = 10 μmol/L endogenous ligand; for EC50: CHO-K1 cell, aequorin luminescence
Procedure: (§1) Test 1: Evaluation of Agonistic Activity for Human 5-HT1A Receptor and Human D4 Receptor
(§2) Aequorin, Gα16 proteins, and each receptor were transiently expressed in CHO-K1 cell (Chinese hamster ovary), and seeded to 384-well plate. The plate was incubated in a CO2 incubator at 37° C. for 24 hours. Each example compound dissolved in DMSO was added thereto, and the change of luminescence amount was measured with Hamamatsu FDSS/μCELL System (Hamamatsu Photonics).

human D4 receptor [2] = target: T2, human D4 receptor (Homo sapiens (Human), UniProt P21917); test: Test 1: agonistic activity for human D4 receptor (aequorin/Gα16 luminescence in CHO-K1 cell); assay type: cell-based; conditions: for Emax: CHO-K1, 100% = 10 μmol/L endogenous ligand; for EC50: CHO-K1 cell, aequorin luminescence
Procedure: as §1, §2

human 5-HT1A receptor [3] = target: T1, human 5-HT1A receptor; test: Test 2: binding activity to human 5-HT1A receptor ([3H] 8-OH-DPAT, CHO cell membrane); conditions: [3H] 8-OH-DPAT; read-out: 5-HT1A binding affinity (Ki value)
Procedure: (§3) Test 2: Evaluation of Binding Activity to Human 5-HT1A Receptor, Human D4 Receptor, and Human D2 Receptor
(§4) CHO cell membrane fraction in which human 5-HT1A receptor, human D4 receptor, and human D2 receptor were expressed was purchased from PerkinElmer Co., Ltd. In the evaluation test of binding, the test compound dissolved in DMSO, each receptor membrane preparation diluted with buffer solution, and [3H] […] The nonspecific binding to each receptor was evaluated by a competition binding experiment in the presence of 10 μmol/L 8-OH-DPAT, 10 μmol/L dopamine, or 10 μmol/L spiperone, respectively.

human D4 receptor [4] = target: T2, human D4 receptor; test: Test 2: binding activity to human D4 receptor ([3H] dopamine, CHO cell membrane)
Procedure: as §3, §4

human D2 receptor = human D2 receptor (Homo sapiens (Human), UniProt P14416); test: Test 2: binding activity to human D2 receptor ([3H] spiperone, CHO cell membrane); conditions: [3H] spiperone; read-out: D2 binding affinity (Ki value)
Procedure: as §3, §4

[5] = Test 3-1: metabolic stability test of human liver microsome (0.1 mg/mL); assay type: in vitro ADME; conditions: test compound 0.1 μmol/L, 37° C., 30 minutes
Procedure: Test 3-1: Metabolic Stability Test of Human Liver Microsome
(§5) The stability of the present compounds for human liver microsome metabolism was evaluated as mentioned below. The used human liver microsome was obtained from Xenontech. Human liver microsome, NADPH, and each test compound were mixed in 25 mmol/L phosphate buffer solution (pH 7.4) to adjust each concentration as shown below, and the mixture was incubated at 37° C. for 30 minutes. • human liver microsome: 0.1 mg/mL • NAPDH: 3.2 mmol/L • test compound: 0.1 μmol/L
(§6) The residual ratio of the test compound in each sample after the incubation for 30 minutes was measured with a LC-MS, and the metabolic stability of human liver microsome was calculated about each test compound with the following formula. Metabolic stability of human liver microsome (mL/min/mg protein)=−LN (residual ratio)/“reaction time”/“concentration of human liver microsome”

[6] = Test 3-2: metabolic stability test of human liver microsome (0.5 or 1.0 mg/mL); assay type: in vitro ADME; conditions: test compound 0.1 μmol/L, 37° C., 30 minutes
Procedure: Test 3-2: Metabolic Stability Test of Human Liver Microsome
as §5, with “In order to evaluate the metabolic stability of human liver microsomes more precisely, the stability” for “The stability”, “evaluated with a suitable concentration of human liver microsome,” for “evaluated”, “microsome: 0.5 or 1.0” for “microsome: 0.1”
as §6

[7] = Test 4-1: predictive test of human half-life (monkey distribution volume, serum unbound fraction, Test 3-1 stability); conditions: in vivo, predicted using Test 3-1 metabolic stability
Procedure: Test 4-1: Predictive Test of Human Half-Life
(§7) 0.01 mol/L of the present compound in aqueous hydrochloric acid solution was parenterally administered to cynomolgus monkey. 5 minutes, 15 minutes, 30 minutes, 1 hour, 2 hours, 4 hours, 6 hours, and 24 hours after the administration, the blood was collected. The plasma was obtained from the collected blood, the drug concentration in the plasma was measured with a LC-MS, and the monkey distribution volume was calculated from the transition of the concentrations. The unbound fraction rate of the present compound in serum of human and monkey was measured by equilibrium dialysis method.
Using the monkey distribution volume, the unbound fraction rate in serum of human and monkey, and the result of the metabolic stability of human liver microsome which was obtained in Test 3-1, the half-life in human was calculated according to the formula below. “Human distribution volume”=“monkey distribution volume”×“unbound fraction rate in serum of human”/“unbound fraction rate in serum of monkey” “Human hepatic clearance”=(“human hepatic blood flow”×“unbound fraction rate in serum of human”×56.7×“metabolic stability of human liver microsome”)/(“human hepatic blood flow”+“unbound fraction rate in serum of human”×56.7×“metabolic stability of human liver microsome”) “Half-life in human”=0.693×“human distribution volume”/“human hepatic clearance”

[8] = Test 4-2: predictive test of human half-life (monkey distribution volume, serum unbound fraction, Test 3-2 stability); conditions: in vivo, predicted using Test 3-2 metabolic stability
Procedure: Test 4-2: Predictive Test of Human Half-Life
as §7
Using the monkey distribution volume, the unbound fraction rate in serum of human and monkey, and the result of the metabolic stability of human liver microsome which was obtained in Test 3-2, the half-life in human was calculated according to the formula below. “Human distribution volume”=“monkey distribution volume”×“unbound fraction rate in serum of human”/“unbound fraction rate in serum of monkey” “Human hepatic clearance”=(“human hepatic blood flow”×“unbound fraction rate in serum of human”×56.7×“metabolic stability of human liver microsome”)/(“human hepatic blood flow”+“unbound fraction rate in serum of human”×56.7×“metabolic stability of human liver microsome”) “Half-life in human”=0.693×“human distribution volume”/“human hepatic clearance”

hERG channel = hERG channel (Homo sapiens (Human), UniProt Q12809); test: Test 5-1: activity for inhibiting hERG channel (whole-cell patch clamp, hERG-CHO cell, Qpatch); assay type: cell-based; conditions: read-out: hERG inhibition IC50
Procedure: Test 5-1: Evaluation of Activity for Inhibiting hERG Channel
The activity of the present compound for inhibiting hERG channel was measured by whole-cell patch clamp method with auto patch clamp system, using CHO cell wherein hERG channel involved in human rapidly activating delayed rectifier potassium current (IKr) was forcibly expressed.
hERG-CHO cell purchased from ChanTest was incubated at 37° C. in a CO2 incubator, and the cell was exfoliated from the flask with trypsin to prepare a cell suspension, shortly before the hERG current measurement.
Extracellular fluid: 2 mmol/L CaCl2, 1 mmol/L MgCl2, 10 mmol/L HEPES, 4 mmol/L KCl, 145 mmol/L NaCl, 10 mmol/L glucose
Intracellular fluid: 5.4 mmol/L CaCl2, 1.8 mmol/L MgCl2, 10 mmol/L HEPES, 31 mmol/L KOH, 10 mmol/L EGTA, 120 mmol/L KCl, 4 mmol/L Na2-ATP
Test compound solution: The test compound was dissolved in DMSO by adjusting the concentration to 2 mmol/L or 20 mmol/L to prepare each test compound solution. […] (Measurement of Current Value and Data Analysis)
The cell suspension, the extracellular fluid, the intracellular fluid, and the measurement plate were set in an auto patch clamp system, and the hERG current was measured by whole-cell patch clamp method. […] Each pulse interval was 15 seconds. The data analysis was carried out with Qpatch Assay Software (Biolin Scientific). The test was carried out applying increscently 4 concentrations of each test compound, and the average of the peak tail currents that were obtained by the last 3 stimulations in each applied concentration was determined to be the evaluated data. By using the current inhibition rate for the pre-applied current at each concentration of each test compound, IC50 value was calculated by Hill equation with the software.

SD male rat = test: Test 6: contextual fear conditioning test; assay type: in vivo; conditions: 10 mg/kg administration
Procedure: Test 6: Contextual Fear Conditioning Test
The antianxiety of the present compounds was evaluated in a manner mentioned below.
The evaluation of an 8-week-old SD male rat with a fear conditioning test system (O'HARA & CO., LTD.) was carried out in 2-day test schedule. On the 1st day of the test, by giving 0.5 mA of electric shock to the rat as unconditioned stimulus 5 times for 6 minutes, the rat was made to learn the relationship the context (the illuminance in the cage: 200 lx) which was given as conditioned stimulus, and phobic stimulus. On the 2nd day, the present compound was subcutaneously administered with saline solution to the rat, or orally administered with methylcellulose suspension to the rat. 0.5 or 1 hour after the administration, the rat was made to softly enter the cage under the condition in which the unconditioned stimulus was not given in the context. The time of cataleptic freezing reaction that the rat took for 5-minute freely-moving period and its ratio were measured. The ratios of cataleptic freezing reaction between the solvent-administration group and the present compound-administration group were compared to be statistically processed.

Wistar male rat = test: Test 9: microdialysis test (release amount of intracerebral monoamine, orbitofrontal cortex); assay type: in vivo; conditions: combination administration with sertraline or single administration
Procedure: Test 9: Microdialysis Test
The effect of the present compound for the release amount of intracerebral monoamine was evaluated in a manner mentioned below.
8-Week-old Wistar male rat was fixed on a brain stereotaxic apparatus under anesthesia. The scalp was incised, the subcutaneous tissue was removed, the position of the bregma was measured, and the installation position of a guide cannula was calculated (the position of the orbitofrontal cortex which defined according to the brain stereotaxic coordinates of Paxinos & Watson (2.0 mm right, 4.2 mm anterior from bregma)). The skull was drilled with a dental drill at the installation position of the guide cannula, and an anchor screw was set about 1 cm posterior to the hole. The guide cannula was set and fixed with a dental cement, and then the scalp was sutured. The animal was released from the brain stereotaxic apparatus, and was moved back to the breeding cage. In the event of the test, the rat was put in an acrylic observable cage, and a dialysis probe was inserted along the guide cannula to connect to a free-moving tube. With an infusion pump, Ringer solution was perfused at 2 μL/min, and the dialysis solution was recovered at 20-minute intervals. […] The recovered dialysis solutions were analyzed with a HPLC-ECD system to determine the contents of norepinephrine (NE), dopamine (DA), and serotonin (5-HT).

[9] = [3H] dopamine, read-out: D4 binding affinity (Ki value)

T1 sequence (P08908 whole entry): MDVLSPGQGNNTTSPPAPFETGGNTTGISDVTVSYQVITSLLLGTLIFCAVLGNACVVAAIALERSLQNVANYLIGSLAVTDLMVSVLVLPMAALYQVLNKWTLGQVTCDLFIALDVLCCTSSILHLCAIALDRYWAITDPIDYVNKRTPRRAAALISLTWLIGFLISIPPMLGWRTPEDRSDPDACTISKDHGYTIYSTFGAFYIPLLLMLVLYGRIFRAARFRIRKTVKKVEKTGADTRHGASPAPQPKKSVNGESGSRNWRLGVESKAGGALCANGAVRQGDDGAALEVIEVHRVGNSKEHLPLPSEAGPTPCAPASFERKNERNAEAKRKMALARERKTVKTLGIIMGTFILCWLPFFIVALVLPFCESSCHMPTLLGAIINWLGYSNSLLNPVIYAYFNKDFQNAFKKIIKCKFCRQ
human D2 receptor, sequence (P14416 whole entry): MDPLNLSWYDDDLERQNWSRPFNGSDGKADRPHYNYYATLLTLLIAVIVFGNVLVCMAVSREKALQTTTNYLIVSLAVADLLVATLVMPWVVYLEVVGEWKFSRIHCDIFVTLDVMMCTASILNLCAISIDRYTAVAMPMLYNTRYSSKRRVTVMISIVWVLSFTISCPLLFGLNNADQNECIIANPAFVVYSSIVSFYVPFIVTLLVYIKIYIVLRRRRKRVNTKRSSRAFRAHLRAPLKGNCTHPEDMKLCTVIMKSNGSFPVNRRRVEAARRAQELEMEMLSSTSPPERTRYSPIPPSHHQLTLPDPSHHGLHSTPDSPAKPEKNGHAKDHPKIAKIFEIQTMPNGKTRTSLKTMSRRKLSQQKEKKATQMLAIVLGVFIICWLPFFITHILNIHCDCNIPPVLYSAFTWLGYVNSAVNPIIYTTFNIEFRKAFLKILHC
T2 sequence (P21917 whole entry): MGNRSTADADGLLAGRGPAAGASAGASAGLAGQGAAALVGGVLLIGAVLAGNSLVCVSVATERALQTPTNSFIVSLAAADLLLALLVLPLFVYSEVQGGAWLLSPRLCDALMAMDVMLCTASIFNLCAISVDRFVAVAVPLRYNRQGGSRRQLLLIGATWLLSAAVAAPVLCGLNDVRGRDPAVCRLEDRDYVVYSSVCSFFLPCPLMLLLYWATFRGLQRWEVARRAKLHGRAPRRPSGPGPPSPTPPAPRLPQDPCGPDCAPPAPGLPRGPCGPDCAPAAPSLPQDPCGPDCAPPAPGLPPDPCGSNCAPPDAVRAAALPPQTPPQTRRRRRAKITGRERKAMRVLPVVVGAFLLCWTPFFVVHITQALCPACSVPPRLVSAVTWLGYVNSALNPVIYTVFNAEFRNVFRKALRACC
hERG channel, sequence (Q12809 whole entry): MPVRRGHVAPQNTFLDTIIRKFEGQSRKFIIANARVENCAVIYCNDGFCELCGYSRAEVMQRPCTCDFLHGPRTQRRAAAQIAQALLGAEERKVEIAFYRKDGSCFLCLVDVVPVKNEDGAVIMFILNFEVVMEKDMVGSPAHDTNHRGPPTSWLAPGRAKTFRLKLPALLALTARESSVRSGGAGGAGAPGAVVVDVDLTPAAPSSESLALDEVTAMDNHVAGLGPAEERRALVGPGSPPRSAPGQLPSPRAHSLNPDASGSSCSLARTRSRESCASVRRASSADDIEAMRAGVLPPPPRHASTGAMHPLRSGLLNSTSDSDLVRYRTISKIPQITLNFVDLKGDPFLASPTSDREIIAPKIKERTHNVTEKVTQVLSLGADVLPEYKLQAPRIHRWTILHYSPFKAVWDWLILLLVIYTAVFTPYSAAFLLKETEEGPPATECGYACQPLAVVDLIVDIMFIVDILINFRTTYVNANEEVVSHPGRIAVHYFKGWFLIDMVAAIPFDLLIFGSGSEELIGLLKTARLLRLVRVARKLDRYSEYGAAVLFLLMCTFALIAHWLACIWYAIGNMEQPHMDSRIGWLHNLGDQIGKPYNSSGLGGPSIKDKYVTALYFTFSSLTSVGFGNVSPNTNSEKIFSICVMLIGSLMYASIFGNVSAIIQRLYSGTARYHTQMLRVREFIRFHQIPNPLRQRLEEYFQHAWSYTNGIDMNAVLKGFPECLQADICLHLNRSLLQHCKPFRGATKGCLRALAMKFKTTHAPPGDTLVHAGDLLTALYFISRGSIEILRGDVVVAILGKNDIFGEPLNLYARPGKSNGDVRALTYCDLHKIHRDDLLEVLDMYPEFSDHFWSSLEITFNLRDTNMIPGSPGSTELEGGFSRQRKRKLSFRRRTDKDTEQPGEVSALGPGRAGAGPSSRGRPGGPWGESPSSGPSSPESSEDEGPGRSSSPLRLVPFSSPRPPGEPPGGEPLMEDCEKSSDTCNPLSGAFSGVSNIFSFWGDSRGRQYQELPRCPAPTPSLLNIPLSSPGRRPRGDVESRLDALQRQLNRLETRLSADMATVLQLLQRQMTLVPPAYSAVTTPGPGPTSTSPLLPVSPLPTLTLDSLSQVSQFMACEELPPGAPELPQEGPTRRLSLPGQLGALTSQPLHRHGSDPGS

Row | SMILES | Emax (human 5-HT1A receptor [1]) [%] | EC50 (human 5-HT1A receptor [1]) [nM] | Emax (human D4 receptor [2]) [%] | EC50 (human D4 receptor [2]) [nM] | Ki (human 5-HT1A receptor [3]) [nM] | Ki (human D4 receptor [4]; [9]) [nM] | Ki (human D2 receptor) [nM] | Metabolic stability of human liver microsome [5] [mL/min/mg protein] | Metabolic stability of human liver microsome [6] [mL/min/mg protein] | half-life [7] [h] | half-life [8] [h] | IC50 (hERG channel) [nM] | decrease of the cataleptic freezing reaction for the solvent-administration group (SD male rat) [%] | Ki (human D4 receptor [4]) [nM] | serotonin content (Wistar male rat)
1 | Cc1cccc(C2CCN(CCNC(=O)C3CCOCC3)CC2)n1 [Example 8, N-{2-[4-(6-Methylpyridin-2-yl)piperidin-1-yl]ethyl}-tetrahydro-2H-pyran-4-carboxamide] | 71 | < 10 | 65 | 37.1 | 1.4 | 111 | > 10000 | 0.017 | 0.023 | 9.2 | 59 | 44300 | 41.0 |  | 
2 | CC(C)(C)C(=O)NCCN1CCC(c2cccc(C(F)(F)F)n2)CC1 [Example 9, 2,2-dimethyl-N-(2-{4-[6-(trifluoromethyl)pyridin-2-yl]piperidin-1-yl}ethyl)propanamide] | 84 | < 10 | 53 | < 10 | 1.1 | 8 | 2440 | 0.025 | 0.016 |  | 10 | 5900 |  |  | 
3 | O=C(NCCN1CCC(c2cccc(C(F)(F)F)n2)CC1)C1CCOCC1 [Example 11, N-(2-{4-[6-(Trifluoromethyl)pyridin-2-yl]piperidin-1-yl}ethyl)-tetrahydro-2H-pyran-4-carboxamide] | 92 | 82 | 56 | 30.8 | 2.1 |  | > 10000 |  | 0.0075 | 13 | 17 |  |  | 44 | did not decrease the serotonin content
